From patent publication US9067884B2, “Pyrrole compounds that modulate HSP90 activity” (Synta Pharmaceuticals Corp., priority 2008, dated 2015)

Columns and labels:
Hsp90 = experiment: IC50 range of compounds of the invention for  inhibition of Hsp90 (Method 2: MV-4-11 cells, Cell Counting Kit-8); assay type: cell-based, human; conditions: text: IC50 range for Her2 degradation, 72 hours, cell survival by Cell Counting Kit-8
Description: MV-4-11 cells (20,000 cells/well) were cultured in 96-well plates and maintained at 37° C. for several hours. The cells were treated with a compound of the invention or 17AAG (a positive control) at various concentrations and incubated at 37° C. for 72 hours. Cell survival was measured with Cell Counting Kit-8 (Dojindo Laboratories, Cat. # CK04).

Her2 = experiment: Degradation of Her2 in BT-474 cells (Method 1, Western blot); assay type: cell-based, Human; conditions: 0.5 μM, overnight
Description: Human high-Her2 breast carcinoma BT474 (HTB-20), SK-BR-3 (HTB-30) and MCF-7 breast carcinoma (HTB-22) from American Type Culture Collection, VA, USA were grown in Dulbecco's modified Eagle's medium with 4 mM L-glutamine and antibiotics (100 IU/ml penicillin and 100 μg/ml streptomycine; GibcoBRL). To obtain exponential cell growth, cells were trypsinized, counted and seeded at a cell density of 0.5×10^6 cells/ml regularly, every 3 days. All experiments were performed on day 1 after cell passage.
BT-474 cells are treated with 0.5 μM, 2 μM, or 5 μM of 17AAG (a positive control) or 0.5 μM, 2 μM, or 5 μM of a compound of the invention overnight in DMEM medium. After treatment, each cytoplasmic sample, is prepared from 1×10^6 cells by incubation of cell lysis buffer (#9803, Cell Signaling Technology) on ice for 10 minutes. The resulting supernatant used as the cytosol fractions is dissolved with sample buffer for SDS-PAGE and run on a SDS-PAGE gel, blotted onto a nitrocellulose membrane by using semi-dry transfer. Non-specific binding to nitrocellulose is blocked with 5% skim milk in TBS with 0.5% Tween at room temperature for 1 hour, then probed with anti-Her2/ErB2 mAb (rabbit IgG, #2242, Cell Signaling) and anti-Tubulin (T9026, Sigma) as housekeeping control protein. […]

| SMILES | IC50 (Hsp90) [nM] | degradation of Her2 (Her2) |
| --- | --- | --- |
| CCNC(=O)c1ccc(-c2cc(C(C)C)c(O)cc2O)n1-c1ccc(N(C)C)cc1 [Compound 3, 5-(2,4-dihydroxy-5-isopropylphenyl)-1-(4-(dimethylamino)phenyl)-N-ethyl-1H-pyrrole-2-carboxamide] | > 1000 | – |
| C=CCNC1=C2C[C@@H](C)C[C@H](OC)[C@H](O)[C@@H](C)/C=C(\C)[C@H](OC(N)=O)[C@@H](OC)/C=C\C=C(/C)C(=O)NC(=CC1=O)C2=O [Compound 17AAG, 17-allylamino-17-demethoxygeldanamycin] | – | partial degradation of Her2 |
